According to patent US20240336594A1, “SIX-MEMBERED ARYL OR HETEROARYL AMIDES, AND COMPOSITION AND USE THEREOF” (BETTA PHARMACEUTICALS CO., LTD, priority 2021, published 2024):

Assays:
MALT1 = target: T1, MALT1 (Homo sapiens, UniProt Q9UDY8); experiment: MALT1 protease inhibition assay (AMC-labeled peptide, fluorescence 360/460); type: biochemical; conditions: substrate Ac-LRSR-AMC, 15 min preincubation, 90 min at 25° C.
T1 sequence (Q9UDY8 1-824): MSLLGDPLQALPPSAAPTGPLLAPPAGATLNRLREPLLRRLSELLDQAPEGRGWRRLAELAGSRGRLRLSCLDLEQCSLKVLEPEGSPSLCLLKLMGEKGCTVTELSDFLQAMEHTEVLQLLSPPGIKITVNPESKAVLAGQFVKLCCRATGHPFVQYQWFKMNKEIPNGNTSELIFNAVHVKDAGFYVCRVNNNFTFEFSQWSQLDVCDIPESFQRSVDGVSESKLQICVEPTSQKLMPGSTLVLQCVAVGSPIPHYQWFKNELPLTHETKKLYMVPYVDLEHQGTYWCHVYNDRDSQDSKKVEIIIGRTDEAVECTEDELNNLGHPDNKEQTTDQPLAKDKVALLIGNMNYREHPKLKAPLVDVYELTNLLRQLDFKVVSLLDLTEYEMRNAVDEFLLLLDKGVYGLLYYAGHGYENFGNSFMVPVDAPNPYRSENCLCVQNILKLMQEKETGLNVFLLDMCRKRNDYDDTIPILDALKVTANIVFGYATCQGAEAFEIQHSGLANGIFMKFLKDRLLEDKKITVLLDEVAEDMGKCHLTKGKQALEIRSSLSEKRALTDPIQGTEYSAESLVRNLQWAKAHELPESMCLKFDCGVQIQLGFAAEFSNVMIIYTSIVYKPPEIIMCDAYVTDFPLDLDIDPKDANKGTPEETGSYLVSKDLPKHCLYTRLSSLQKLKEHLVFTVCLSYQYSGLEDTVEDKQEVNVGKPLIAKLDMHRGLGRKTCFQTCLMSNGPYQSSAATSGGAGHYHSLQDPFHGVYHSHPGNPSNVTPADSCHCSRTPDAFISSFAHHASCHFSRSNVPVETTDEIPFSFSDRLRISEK
How it was run: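 Fluorogenic AMC-peptide cleavage read after 90 min at 25 °C, following a 15 min enzyme–compound preincubation at 25 °C in citrate protease buffer plus DTT. Compounds run as ten 3-fold dilutions in duplicate; percent inhibition relative to enzyme-only and enzyme-free controls, fitted to IC50.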

[1] = system: IL-2 secretion of Jurkat cells (PMA/Ionomycin inducing); experiment: ELISA method to detect IL-2 secretion induced by PMA/Ionomycin; type: cell-based; conditions: Homo sapiens, 20 h
Method: 12.5*10^3 Jurkat cells were seeded on a 96-well plate and incubated with various concentrations of compound solution for 30 min. Then, 500×PMA/Ionomycin stimulating factor was diluted with culture medium and added to the cell plate. […] The final concentrations of the compounds were 10000, 3333.3, 1111.1, 370.4, 123.5, 41.2, 13.7, 4.6, 1.5, 0 nM (The final concentration of DMSO is 0.5%). After incubation for 20 h, the supernatant was collected via centrifugation. The final IL-2 concentration was detected by ELISA method (IL-2 Duoset, R&D Systems, DY202). The signal value of each sample at a wavelength of 450 nm was collected by EnVision multifunctional microplate reader and converted to the IL-2 concentration via the ELISACalc.exe software. The IL-2 secretion inhibitory activity IC50 was fitted by GraphPad Prism software. The cell viability was tested simultaneously using the Cell-Titer Glo kit.
The compounds of the present invention show strong inhibitory effect on IL-2 secretion of Jurkat cells (PMA/Ionomycin inducing).

SMILES | IC50 (MALT1) [nM] | IC50 [1] [nM]
Nc1cc(F)ccc1-c1cc(Cl)c(C(=O)Nc2cnc(-n3nccn3)c(Cl)c2)cc1F [Example A121, 2′-amino-5-chloro-N-(5-chloro-6-(2H-1,2,3-triazol-2-yl)pyridin-3-yl)-2,4′-difluoro-[1,1′-biphenyl]-4-carboxamide] | ≤ 10 | 43
Nc1cc(F)ccc1-c1cc(Cl)c(C(=O)Nc2cnc(-n3nccn3)c(C(F)(F)F)c2)cc1F [Example A122, N-(6-(2H-1,2,3-triazol-2-yl)-5-(trifluoromethyl)pyridin-3-yl)-2′-amino-5-chloro-2,4′-difluoro-[1,1′-biphenyl]-4-carboxamide] | ≤ 10 | 121
Nc1cc(F)ccc1-c1cc(F)c(C(=O)Nc2cnc(-n3nccn3)c(C(F)(F)F)c2)cc1Cl [Example A123, N-(6-(2H-1,2,3-triazol-2-yl)-5-(trifluoromethyl)pyridin-3-yl)-2′-amino-2-chloro-4′,5-difluoro-[1,1′-biphenyl]-4-carboxamide] | ≤ 10 | 58
Nc1cnccc1-c1cc(F)c(C(=O)Nc2cnc(-n3nccn3)c(Cl)c2)cc1Cl [Example A124] | ≤ 10 | 252
Cc1cc(-c2ccncc2Cl)c(F)cc1C(=O)Nc1cnc(-n2nccn2)c(Cl)c1 [Example A126] | ≤ 10 | 136
CNc1cc(F)ccc1-c1cc(F)c(C(=O)Nc2cnc(-n3nccn3)c(Cl)c2)cc1Cl [Example A127, 2-chloro-N-(5-chloro-6-(2H-1,2,3-triazol-2-yl)pyridin-3-yl)-4′,5-difluoro-2′-(methylamino)-[1,1′-biphenyl]-4-carboxamide] | ≤ 10 | 444
O=C(Nc1cnc(-n2nccn2)c(Cl)c1)c1cc(F)c(-c2ccc(F)cc2CO)cc1Cl [Example A281] | ≤ 10 | 77
C#Cc1cncc(N)c1-c1cc(Cl)c(C(=O)Nc2cnc(-n3nccn3)c(C(F)(F)F)c2)cc1F [Example A410, N-(6-(2H-1,2,3-triazol-2-yl)-5-(trifluoromethyl)pyridin-3-yl)-4-(3-amino-5-ethynylpyridin-4-yl)-2-chloro-5-fluorobenzamide] | ≤ 10 | 66
C#Cc1cncc(N)c1-c1cc(Cl)c(C(=O)Nc2cnc(-n3nccn3)c(Cl)c2)cc1F [Example A411, 4-(3-amino-5-ethynylpyridin-4-yl)-2-chloro-N-(5-chloro-5-(2H-1,2,3-triazol-2-yl)pyridin-3-yl)-5-fluorobenzamide] | ≤ 10 | 17
C#Cc1cc(F)cc(N)c1-c1cc(Cl)c(C(=O)Nc2cnc(-n3nccn3)c(Cl)c2)cc1F [Example A412] | ≤ 10 | 32
C#Cc1cnccc1-c1cc(Cl)c(C(=O)Nc2cnc(C(=O)NC)c(Cl)c2)cc1F [Example A426, 3-chloro-5-(2-chloro-4-(3-ethynylpyridin-4-yl)-5-fluorobenzamido)-N-methylpicolinamide] | ≤ 10 | 77
C#Cc1cnccc1-c1cc(Cl)c(C(=O)Nc2cnc(C(=O)NCC#N)c(Cl)c2)cc1F [Example A427, 3-chloro-5-(2-chloro-4-(3-ethynylpyridin-4-yl)-5-fluorobenzamido)-N-(cyanomethyl)picolinamide] | ≤ 10 | 77
C#Cc1cnccc1-c1cc(Cl)c(C(=O)Nc2cnc(C(=O)NCC)c(Cl)c2)cc1F [Example A428, 3-chloro-5-(2-chloro-4-(3-ethynylpyridin-4-yl)-5-fluorobenzamido)-N-ethylpicolinamide] | ≤ 10 | 164
C#Cc1cncc(N)c1-c1cc(Cl)c(C(=O)Nc2cnc(C(=O)NCC(F)(F)F)c(Cl)c2)cc1F [Example A470, 5-(4-(3-amino-5-ethynylpyridin-4-yl)-2-chloro-5-fluorobenzamido)-3-chloro-N-(2,2,2-trifluoroethyl)picolinamide] | ≤ 10 | 113
Nc1cncc(C2CC2)c1-c1cc(Cl)c(C(=O)Nc2cnc(-n3nccn3)c(Cl)c2)cc1F [Example A506, 4-(3-amino-5-cyclopropylpyridin-4-yl)-2-chloro-N-(5-chloro-6-(2H-1,2,3-triazol-2-yl)pyridin-3-yl)-5-fluorobenzamide] | ≤ 10 | 76
